One data set has as its system hepatitis B virus. Particulars: cited from earlier work; for HBV markers after dosing was stopped: chronic HBV patients.
The nature of data set [1]: Peak and trough plasma levels of FIAU and FAU by HPLC. It is filed as in vivo, human. Particulars: in vivo. The text has this:
Additionally at Baseline, archive plasma samples were taken.

The subject of data set [2] is woodchuck hepatitis virus. Particulars: cited from earlier work.
Data set [3] deals with DNA polymerase enzyme of woodchuck hepatitis virus (Woodchuck hepatitis B virus, UniProt P03160). The settings on record: read-out: concentration inhibiting DNA polymerase activity by 50 percent; cited from earlier work.
The subject of another data set is HSV-1. The settings on record: read-out: in vitro ED90; cited from earlier work.
For data set [4], the target named is DNA polymerase enzyme of human hepatitis B virus (Hepatitis B virus genotype D subtype ayw, UniProt P03156). Particulars: read-out: concentration inhibiting DNA polymerase activity by 50 percent; cited from earlier work.
A short description of data set [5]: Stability in an acid environment. It is filed as physicochemical. Particulars: such as is found in the human stomach.
For data set [6] the following is noted: cited from earlier work.
For the next data set, the system named is CMV. The settings on record: read-out: in vitro ED90; cited from earlier work.
For data set [7] the following is noted: typical; read-out: cellular toxicity concentration (ID50); cited from earlier work.
The mark [8] stands for this setting: chronic type therapy at HBV DNA suppressive doses.

pIC50: −log10 of the molar value. Where two headings read alike, the source gives them in different places.

Chain of DNA polymerase enzyme of human hepatitis B virus (P03156 whole entry): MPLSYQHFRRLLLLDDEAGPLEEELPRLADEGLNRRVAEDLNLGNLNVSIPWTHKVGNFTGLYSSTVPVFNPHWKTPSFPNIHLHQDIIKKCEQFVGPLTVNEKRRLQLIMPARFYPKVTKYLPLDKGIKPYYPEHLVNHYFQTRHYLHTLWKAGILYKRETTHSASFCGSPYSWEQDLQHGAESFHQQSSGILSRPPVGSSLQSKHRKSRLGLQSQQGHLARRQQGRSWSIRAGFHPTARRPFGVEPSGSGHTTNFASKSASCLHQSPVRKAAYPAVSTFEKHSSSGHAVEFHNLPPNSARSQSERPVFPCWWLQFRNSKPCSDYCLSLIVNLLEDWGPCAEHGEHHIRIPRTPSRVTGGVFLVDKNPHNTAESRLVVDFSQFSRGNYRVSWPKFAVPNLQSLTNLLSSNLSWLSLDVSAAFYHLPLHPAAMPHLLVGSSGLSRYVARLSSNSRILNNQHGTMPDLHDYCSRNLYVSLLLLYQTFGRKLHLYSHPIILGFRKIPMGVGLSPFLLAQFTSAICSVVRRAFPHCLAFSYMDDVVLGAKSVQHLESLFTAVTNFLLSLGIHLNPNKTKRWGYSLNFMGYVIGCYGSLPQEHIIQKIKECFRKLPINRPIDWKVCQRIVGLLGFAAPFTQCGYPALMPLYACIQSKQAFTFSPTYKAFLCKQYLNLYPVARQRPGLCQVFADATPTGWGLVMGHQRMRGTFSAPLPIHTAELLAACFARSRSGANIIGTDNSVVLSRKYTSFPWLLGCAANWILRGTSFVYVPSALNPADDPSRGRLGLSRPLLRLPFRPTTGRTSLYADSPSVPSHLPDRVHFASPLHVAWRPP
Chain of DNA polymerase enzyme of woodchuck hepatitis virus (P03160 whole entry): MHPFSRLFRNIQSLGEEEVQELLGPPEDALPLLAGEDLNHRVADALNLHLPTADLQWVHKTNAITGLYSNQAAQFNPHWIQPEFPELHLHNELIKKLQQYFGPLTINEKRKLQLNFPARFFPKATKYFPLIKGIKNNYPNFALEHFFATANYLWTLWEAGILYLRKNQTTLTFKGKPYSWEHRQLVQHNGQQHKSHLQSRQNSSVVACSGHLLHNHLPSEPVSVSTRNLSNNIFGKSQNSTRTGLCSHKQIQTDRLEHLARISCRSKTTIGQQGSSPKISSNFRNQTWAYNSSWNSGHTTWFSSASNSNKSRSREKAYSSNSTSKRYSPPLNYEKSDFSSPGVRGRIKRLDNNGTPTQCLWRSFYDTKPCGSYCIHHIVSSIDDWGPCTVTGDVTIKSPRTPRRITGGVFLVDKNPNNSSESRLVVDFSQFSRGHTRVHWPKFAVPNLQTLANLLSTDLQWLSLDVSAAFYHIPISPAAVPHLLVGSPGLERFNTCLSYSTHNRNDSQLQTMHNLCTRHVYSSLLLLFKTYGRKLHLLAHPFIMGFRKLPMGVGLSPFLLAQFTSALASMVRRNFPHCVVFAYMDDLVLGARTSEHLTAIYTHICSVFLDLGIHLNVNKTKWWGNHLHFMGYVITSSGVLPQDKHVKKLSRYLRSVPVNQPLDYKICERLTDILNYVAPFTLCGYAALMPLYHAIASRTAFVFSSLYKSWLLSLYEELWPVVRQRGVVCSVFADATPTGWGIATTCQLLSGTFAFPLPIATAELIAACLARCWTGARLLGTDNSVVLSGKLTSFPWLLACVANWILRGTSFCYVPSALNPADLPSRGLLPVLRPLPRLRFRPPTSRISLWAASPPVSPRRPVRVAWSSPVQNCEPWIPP

For interferon-alpha, in the data set on hepatitis B virus (HBeAg positive chronic HBV infection, therapy for months), the “patients with major and sustained decreases in HBV DNA” value is reported as “less than half of patients”. Further, the “patient population in which effective” value in the data set on hepatitis B virus (reported) is on record as “effective only in non-HIV infected patients with baseline entry serum HBV DNA levels less than 200 pg/ml”.

With `O=c1ccn([C@@H]2O[C@H](CO)[C@@H](O)[C@@H]2F)c(=O)[nH]1` [FAU, 1-(2'-deoxy-2'-fluoro-β-D-arabinofuranosyl)uracil], in data set [1] (human, po, 1 mg/kg/day), the “FAU plasma values (rarely exceeded)” value was ≤ 0.15 µg/mL. Also, the “FAU plasma values after the initial dose” value in data set [1] is on record as “almost always undetectable”.

With `Nc1ncnc2c1ncn2[C@@H]1O[C@H](COP(=O)(O)O)[C@@H](O)[C@@H]1O` [ara-AMP], the “suppression of viral DNA” value in data set [2] (similar dose given for 14 days) is listed as “suppressed viral DNA but was followed by a rapid rebound to levels above baseline”. For the same compound, the “HBV markers after dosing was stopped” value was “very rapidly rebounded to baseline levels and above” with hepatitis B virus; “rapid rebound of DNA levels to pretreatment levels after 10-28 days of therapy is the norm” with hepatitis B virus (listed as Ara-AMP). In addition, the “toxicity on continued administration” value was “intolerably toxic” in the data set on hepatitis B virus (setting [8]); “too toxic (persistent and severe neuromuscular pain)” with hepatitis B virus (human, in vivo).

As for `Nc1ncnc2c1ncn2[C@@H]1O[C@H](CO)[C@@H](O)[C@@H]1O` [ara-A], the “HBV markers after dosing was stopped” value in the data set with hepatitis B virus was “very rapidly rebounded to baseline levels and above”. Further, the “toxicity on continued administration” value in the data set on hepatitis B virus (setting [8]) was “too toxic (persistent and severe neuromuscular pain)”.

On to `Nc1nc(=O)n([C@@H]2O[C@H](CO)[C@@H](O)[C@@H]2F)cc1I` [FIAC, 1-(2'-deoxy-2'-fluoro-β-D-arabinofuranosyl)-5-iodocytosine], for which the pIC50 in [3] and in [4] was 7.00 to 7.30 each time. In addition, the results for the EC90 in the data set with HSV-1 and with CMV were ~50 nM and ~500 nM, respectively. The “suppression of viral polymerase and DNA” value in data set [2] (FIAC 20 mg/kg-day for 7 days) is “Rapid, complete and persistent suppression”. The “stability in an acid environment” value in [5] is reported as “stable in an acid environment”. Besides, the “accumulation in the plasma” value in data set [6] (month long TID dosing of FIAC) is recorded as “neither FIAC, FIAU, or their metabolites accumulated in the plasma”. Besides, the “absorption following oral administration” value in data set [6] (oral FIAC, patients) is listed as “nearly completely absorbed”. Also, the “conversion of FIAC to FIAU” value in data set [6] (oral FIAC, patients) was “very rapidly converted to FIAU”. The “FIAC in plasma two hours after dosing” value in [6] (oral FIAC) is given as “almost never detected”. Besides, the CC50 in data set [7] was ~10000 nM.

Source of the values: patent publication US5432165A, “Methods for the treatment of infection caused by Hepatitis B virus (HBV)” (priority 1992, dated 1995).
